Assay results: ChEMBL document CHEMBL1201862, “PubChem BioAssay data set” (2004)
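Where inhibition never reached the appropriate level, the endpoint shown equals the highest concentration tested. Otherwise, values were interpolated linearly from a five-concentration, 48-hour dose response in 96-well plates. GI50 = concentration required for 50% inhibition of growth.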 Calls of active or inactive are those of the source. No stated cut-off is given here; in the data, active = GI50 up to about 1.1 µM and inactive = higher.

Experiments:
Assay in all cases: NCI-60 cell line screen, 48 h
HT-29 = system: HT-29
OVCAR-5 = system: OVCAR-5
CCRF-CEM = system: CCRF-CEM
HL-60 = system: HL-60
RXF 393 = system: RXF 393
SK-MEL-2 = system: SK-MEL-2
SN12C = system: SN12C
KM12 = system: KM12
NCI-H460 = system: NCI-H460
Malme-3M = system: Malme-3M
SNB-75 = system: SNB-75
OVCAR-4 = system: OVCAR-4
SK-MEL-28 = system: SK-MEL-28
UO-31 = system: UO-31
RPMI-8226 = system: RPMI-8226
K562 = system: K562
CAKI-1 = system: CAKI-1
SF-539 = system: SF-539
EKVX = system: EKVX
LOX IMVI = system: LOX IMVI

Row | SMILES | GI50 (HT-29) | GI50 (OVCAR-5) | GI50 (CCRF-CEM) | GI50 (HL-60) | GI50 (RXF 393) | GI50 (SK-MEL-2) | GI50 (SN12C) | GI50 (KM12) | GI50 (NCI-H460) | GI50 (Malme-3M) | GI50 (SNB-75) | GI50 (OVCAR-4) | GI50 (SK-MEL-28) | GI50 (UO-31) | GI50 (RPMI-8226) | GI50 (K562) | GI50 (CAKI-1) | GI50 (SF-539) | GI50 (EKVX) | GI50 (LOX IMVI)
1 | O=C1C[C@H](c2ccccc2)C2(C(=O)c3ccccc3C2=O)[C@H](c2ccccc2)C1 | > 100 µM (inactive) | > 100 µM (inactive) | > 100 µM (inactive) | > 100 µM (inactive) | 12.1 µM (inactive) | 16.6 µM (inactive) | > 100 µM (inactive) | > 100 µM (inactive) | > 100 µM (inactive) | > 100 µM (inactive) | 27 µM (inactive) | > 100 µM (inactive) | > 100 µM (inactive) | > 100 µM (inactive) | > 100 µM (inactive) | > 100 µM (inactive) | > 100 µM (inactive) | – | – | –
2 | Cc1[nH]c(-c2ccccc2)c(O)c1C(=O)OC1CC(C)CCC1C(C)C (configuration not stated) | 14.4 µM (inactive) | 14.2 µM (inactive) | 11 µM (inactive) | 16.4 µM (inactive) | 11.7 µM (inactive) | 14.3 µM (inactive) | 15.7 µM (inactive) | 13.4 µM (inactive) | 15.3 µM (inactive) | 18.7 µM (inactive) | 17.9 µM (inactive) | 13.4 µM (inactive) | 16.3 µM (inactive) | 13.3 µM (inactive) | 15.3 µM (inactive) | 50 µM (inactive) | 17.7 µM (inactive) | 16.2 µM (inactive) | 11.7 µM (inactive) | –
3 | C[C@]12CCC3[C@@H](C[C@H]4OC(=O)[C@@]35CCC(=O)C=C45)C1CCC2=O (some centres not stated) | > 100 µM (inactive) | > 100 µM (inactive) | > 100 µM (inactive) | > 100 µM (inactive) | > 100 µM (inactive) | > 100 µM (inactive) | > 100 µM (inactive) | > 100 µM (inactive) | > 100 µM (inactive) | > 100 µM (inactive) | – | – | > 100 µM (inactive) | > 100 µM (inactive) | > 100 µM (inactive) | > 100 µM (inactive) | – | > 100 µM (inactive) | > 100 µM (inactive) | –
4 | Nc1nc(Cl)cc(NCCCCO)n1 | > 100 µM (inactive) | > 100 µM (inactive) | > 100 µM (inactive) | > 100 µM (inactive) | > 100 µM (inactive) | > 100 µM (inactive) | > 100 µM (inactive) | > 100 µM (inactive) | > 100 µM (inactive) | > 100 µM (inactive) | 65.3 µM (inactive) | > 100 µM (inactive) | > 100 µM (inactive) | > 100 µM (inactive) | > 100 µM (inactive) | > 100 µM (inactive) | – | > 100 µM (inactive) | > 100 µM (inactive) | > 100 µM (inactive)
5 | Cc1ccc(NC(=O)C2C(=O)N(c3ccc(C)c(C)c3)C(=O)/C2=N\NC(N)=S)cc1C (configuration not stated) | 78 µM (inactive) | – | 47.4 µM (inactive) | > 100 µM (inactive) | – | > 100 µM (inactive) | 53.2 µM (inactive) | > 100 µM (inactive) | – | > 100 µM (inactive) | > 100 µM (inactive) | – | > 100 µM (inactive) | 56.8 µM (inactive) | > 100 µM (inactive) | 60.7 µM (inactive) | > 100 µM (inactive) | > 100 µM (inactive) | > 100 µM (inactive) | > 100 µM (inactive)
6 | Oc1cc(-c2ccc(Cl)cc2)nc2ncccc12 | 34.9 µM (inactive) | > 100 µM (inactive) | 41.7 µM (inactive) | – | – | 31 µM (inactive) | 75.9 µM (inactive) | 14.9 µM (inactive) | – | 28.6 µM (inactive) | 24.5 µM (inactive) | 56.6 µM (inactive) | 57.1 µM (inactive) | 33 µM (inactive) | 24.3 µM (inactive) | 11.5 µM (inactive) | 61.9 µM (inactive) | 45.5 µM (inactive) | 52.2 µM (inactive) | 49 µM (inactive)
7 | Nc1nc(SCCc2ccccc2)nc2nc3c(c(-c4ccccc4)c12)CCCC3 | > 100 µM (inactive) | – | > 100 µM (inactive) | > 100 µM (inactive) | 24.3 µM (inactive) | – | > 100 µM (inactive) | > 100 µM (inactive) | > 100 µM (inactive) | > 100 µM (inactive) | 34.9 µM (inactive) | 40.9 µM (inactive) | > 100 µM (inactive) | > 100 µM (inactive) | > 100 µM (inactive) | > 100 µM (inactive) | > 100 µM (inactive) | 0.706 µM (active) | > 100 µM (inactive) | > 100 µM (inactive)
8 | O=P(Nc1ccc(Cl)cc1)(Oc1ccccc1)N(CCCl)CCCl (configuration not stated) | > 100 µM (inactive) | > 100 µM (inactive) | > 100 µM (inactive) | – | – | 35.5 µM (inactive) | > 100 µM (inactive) | > 100 µM (inactive) | – | > 100 µM (inactive) | 33.7 µM (inactive) | > 100 µM (inactive) | > 100 µM (inactive) | > 100 µM (inactive) | – | > 100 µM (inactive) | > 100 µM (inactive) | > 100 µM (inactive) | > 100 µM (inactive) | –
